Where two headings read alike, the source gives them in different places.
Assays:
vaccinia virus = conditions: cited from earlier work
Vero cell culture = conditions: African green monkey
[1] = system: vaccinia virus (strain Copenhagen); assay: microbe, parasite or virus in culture; format: cell-based
[2] = system: mousepox virus—ectromelia (strain K-1), ECTV; assay: microbe, parasite or virus in culture; conditions: Vero, read-out: IC50 ECTV
[3] = system: cowpox virus (strain Grishak), CPXV; assay: microbe, parasite or virus in culture; conditions: Vero, read-out: IC50 CPXV
[4] = system: cowpox virus (strain Grishak), CPXV
[5] = system: mousepox virus—ectromelia (strain K-1), ECTV
orthopoxviruses = conditions: cited from earlier work
cowpox virus = conditions: cited from earlier work
ectromelia virus = conditions: mouse, in vivo; cited from earlier work
[6] = in vivo; cited from earlier work
[7] = in vivo; cited from earlier work; remark: listed apart in the source
VARV = conditions: monkey, in vivo; cited from earlier work
[8] = Orthopoxvirus vaccinia, Vero, read-out: IC50, 50% virus-inhibiting concentration
[9] = Orthopoxvirus vaccinia, Vero, read-out: pIC50 (converted)

SMILES | TC50, 50% cytotoxic concentration (Vero cell culture) | SI, selectivity index (TC50/IC50) [1] | IC50 [1, 8] | IC50 [1, 9] | further results
O=C(NN1C(=O)C2C3C=CC(C4CC34)C2C1=O)c1ccc(F)cc1 (stereo not shown) [compound 19] | – | – | – | – | IC50 (vaccinia virus; read-out: IC50 against vaccinia virus): < 50 nM
O=C(NC1C2CC3CC(C2)CC1C3)c1ccccc1[N+](=O)[O-] (stereo not shown) [16b, N-(adamantan-2-yl)-2-nitrobenzamide] | >100000 nM | – | – | – | –
O=C(NC1C2CC3CC(C2)CC1C3)c1ccc(Br)cc1 (stereo not shown) [15b] | – | 589 | 220 ± 70 nM | 219 nM | IC50 (vaccinia virus; read-out: IC50): 3060 nM
O=C(NC12CC3CC(CC(C3)C1)C2)c1ccc(F)cc1 [13a] | 347310 ± 38980 nM | 847 | 410 ± 100 nM | 407 nM | IC50 [2]: 1390 ± 290 nM; IC50 [3]: 2780 ± 420 nM; SI CPXV (TC50/IC50) [4]: 125; SI ECTV (TC50/IC50) [5]: 250
CC1(C)C2CCC1(C)C(NC(=O)c1ccc([N+](=O)[O-])cc1)C2 (stereo not shown) [compound 11] | – | – | – | – | selectivity index (orthopoxviruses): 31,500
O=C(NC1C2CC3CC(C2)CC1C3)c1cccc([N+](=O)[O-])c1 (stereo not shown) [17b, N-(adamantan-2-yl)-3-nitrobenzamide] | 9500 ± 870 nM | 10 | 990 ± 190 nM | 1000 nM | –
CN(C)CCOCC(=O)NC12CC3CC(CC(C3)C1)C2 [compound 4, tromantadine] | – | – | – | – | vaccinia virus inhibitory effects (vaccinia virus): pronounced
O=C(NC1C2CC3CC(C2)CC1C3)c1ccc([N+](=O)[O-])cc1 (stereo not shown) [18b, N-(adamantan-2-yl)-4-nitrobenzamide] | 492000 ± 31000 nM | 12,300 | 40 ± 10 nM | 39.8 nM | IC50 [2]: 450 ± 220 nM; IC50 [3]: 1100 ± 220 nM; SI CPXV (TC50/IC50) [4]: 447; SI ECTV (TC50/IC50) [5]: 1093
O=C(NC12CC3CC(CC(C3)C1)C2)c1ccc(C(F)(F)F)cc1 [compound 10] | – | – | – | – | selectivity index (orthopoxviruses): 2325
O=C(NC12CC3CC(CC(C3)C1)C2)c1ccccc1 [12a] | 105670 ± 19140 nM | 23 | 4700 ± 370 nM | 4680 nM | –
O=C(NC1C2CC3CC(C2)CC1C3)c1ccc(Cl)cc1 (stereo not shown) [14b] | 104000 ± 8720 nM | 578 | 180 ± 40 nM | 182 nM | –
O=C(CNC1CCCCC1)NC12CC3CC(CC(C3)C1)C2 [compound 2] | – | – | – | – | vaccinia virus inhibitory effects (vaccinia virus): pronounced
CC1(C)[C@H]2CC=C(CNC(=O)C34CC5CC(CC(C5)C3)C4)[C@@H]1C2 [compound 7] | – | – | – | – | selectivity index (SI), vaccinia virus (vaccinia virus): 1123; selectivity index (SI), cowpox virus (cowpox virus): 406
CCCCCCCCCCCCCCCCOCCCOP(=O)(O)CO[C@H](CO)Cn1ccc(N)nc1=O [CMX001, Brincidofovir] | – | – | – | – | protection against lethal infection with ectromelia virus (ectromelia virus): does not provide a sufficient level of protection
O=C(NC12CC3CC(CC(C3)C1)C2)c1ccccc1[N+](=O)[O-] [16a, N-(adamantan-1-yl)-2-nitrobenzamide] | >100000 nM | – | – | – | –
O=C(NC1C2CC3CC(C2)CC1C3)c1ccc(F)cc1 (stereo not shown) [13b] | 104000 ± 8720 nM | 49 | 2140 ± 130 nM | 2140 nM | –
O=C(N/N=C1/C(=O)Nc2ccccc21)NC1C2CC3CC(C2)CC1C3 (stereo not shown) [compound 1] | – | – | – | – | reduction in vaccinia virus reproduction (vaccinia virus): 42%
O=C(NC1C2CC3CC(C2)CC1C3)c1ccccc1 (stereo not shown) [12b] | 101330 ± 6110 nM | 15 | 6730 ± 170 nM | 6760 nM | –
Nc1ccn(C[C@@H](CO)OCP(=O)(O)O)c(=O)n1 [cidofovir, Cidofovir, reference compound] | 201330 ± 60100 nM | 26 | 7630 ± 3150 nM | – | oral bioavailability [6]: Low; selectivity index (SI), vaccinia virus (vaccinia virus): 12; IC50 [2]: 6460 ± 3100 nM; IC50 [3]: 23500 ± 2230 nM; nephrotoxicity [7]: significant; SI CPXV (TC50/IC50) [4]: 9; SI ECTV (TC50/IC50) [5]: 31; efficacy when used after the onset of smallpox lesions (VARV): ineffective
Brc1ccc(NC2C3CC4CC(C3)CC2C4)cc1 (stereo not shown) [bromantane, reference compound] | – | 2 | 38800 nM | 87100 nM | IC50 ([1]; read-out: IC50, 50% virus-inhibiting concentration): 38900 ± 490 nM
O=C(NC12CC3CC(CC(C3)C1)C2)c1ccc(Br)cc1 [15a] | 415000 ± 95000 nM | 3192 | 130 ± 80 nM | 129 nM | IC50 [2]: 150 ± 80 nM; IC50 [3]: 400 ± 240 nM; SI CPXV (TC50/IC50) [4]: 1038; SI ECTV (TC50/IC50) [5]: 2767
O=C(NC12CC3CC(CC(C3)C1)C2)c1cccc([N+](=O)[O-])c1 [17a, N-(adamantan-1-yl)-3-nitrobenzamide] | 7750 ± 750 nM | 8 | 950 ± 30 nM | 955 nM | –
O=C1C2C3C=CC(C4CC34)C2C(=O)N1NC(=O)C12CC3CC(CC(C3)C1)C2 (stereo not shown) [compound 6] | – | – | – | – | effective concentration against vaccinia virus (vaccinia virus): below 0.05 μM; effective concentration against cowpox virus (cowpox virus): below 0.05 μM
CC(=O)N(OCCN(C)C)C12CC3CC(CC(C3)C1)C2 [compound 3] | – | – | – | – | vaccinia virus inhibitory effects (vaccinia virus): pronounced
O=C(NC12CC3CC(CC(C3)C1)C2)c1ccc(Cl)cc1 [14a] | 346000 ± 66000 nM | 2662 | 130 ± 80 nM | 135 nM | IC50 [2]: 370 ± 330 nM; IC50 [3]: 530 ± 370 nM; SI CPXV (TC50/IC50) [4]: 653; SI ECTV (TC50/IC50) [5]: 935
O=C(NC12CC3CC(CC(C3)C1)C2)c1ccc([N+](=O)[O-])cc1 [18a] | 546430 ± 23980 nM | 18,214 | 30 ± 10 nM | 30.2 nM | IC50 [2]: 90 ± 17 nM; IC50 [3]: 180 ± 20 nM; SI CPXV (TC50/IC50) [4]: 3036; SI ECTV (TC50/IC50) [5]: 6071

Reference: publication PMC9865139 (Viruses, 2022)
